Laboratory results: ChEMBL document CHEMBL3991601, “The target landscape of clinical kinase drugs” (Science, 2017)
Activity calls are given as the source filed them. Cut-off read from the data, not from the text of the source, for most assays here: actives have a measured Kd and inactives only a lower limit.

What was measured:
[1] = target: 5'-AMP-activated protein kinase catalytic subunit alpha-1 (Homo sapiens, UniProt Q13131)
[2] = target: Mitogen-activated protein kinase kinase kinase kinase 4 (Homo sapiens, UniProt O95819)
[3] = target: Mitogen-activated protein kinase kinase kinase 4 (Homo sapiens, UniProt Q9Y6R4)
[4] = target: T1, Serine/threonine-protein kinase LATS1 (Homo sapiens, UniProt O95835)
T1 sequence (O95835 whole entry): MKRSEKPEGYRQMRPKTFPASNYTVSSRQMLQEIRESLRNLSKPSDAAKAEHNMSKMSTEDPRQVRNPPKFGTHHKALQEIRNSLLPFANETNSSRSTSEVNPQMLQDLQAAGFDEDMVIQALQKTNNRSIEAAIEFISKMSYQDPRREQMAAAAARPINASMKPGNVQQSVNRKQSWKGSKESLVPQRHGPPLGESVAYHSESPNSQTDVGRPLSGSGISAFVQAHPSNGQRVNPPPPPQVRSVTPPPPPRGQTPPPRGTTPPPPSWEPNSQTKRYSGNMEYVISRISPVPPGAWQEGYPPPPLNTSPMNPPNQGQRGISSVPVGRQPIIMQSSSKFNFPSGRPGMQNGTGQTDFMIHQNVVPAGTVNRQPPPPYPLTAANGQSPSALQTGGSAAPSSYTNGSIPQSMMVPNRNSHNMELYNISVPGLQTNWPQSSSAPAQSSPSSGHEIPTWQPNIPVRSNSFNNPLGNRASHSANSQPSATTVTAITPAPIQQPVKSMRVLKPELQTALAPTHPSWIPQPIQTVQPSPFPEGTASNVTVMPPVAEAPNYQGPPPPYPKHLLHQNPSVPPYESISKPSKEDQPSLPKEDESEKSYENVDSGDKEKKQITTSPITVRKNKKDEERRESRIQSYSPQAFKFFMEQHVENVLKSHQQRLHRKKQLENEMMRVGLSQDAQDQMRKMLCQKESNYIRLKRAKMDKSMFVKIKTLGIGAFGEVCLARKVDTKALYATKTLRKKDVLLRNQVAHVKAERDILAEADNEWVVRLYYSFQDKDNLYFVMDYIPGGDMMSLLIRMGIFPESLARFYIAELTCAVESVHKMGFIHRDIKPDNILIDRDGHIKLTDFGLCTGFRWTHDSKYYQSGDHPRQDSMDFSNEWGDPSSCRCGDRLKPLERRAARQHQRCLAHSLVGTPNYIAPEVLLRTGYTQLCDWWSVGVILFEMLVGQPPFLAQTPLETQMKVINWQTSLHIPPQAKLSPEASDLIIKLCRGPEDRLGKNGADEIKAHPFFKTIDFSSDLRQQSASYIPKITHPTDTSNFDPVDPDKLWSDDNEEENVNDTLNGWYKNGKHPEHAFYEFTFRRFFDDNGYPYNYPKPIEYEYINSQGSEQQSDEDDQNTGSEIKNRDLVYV

[5] = target: Serine/threonine-protein kinase 10 (Homo sapiens, UniProt O94804)
[6] = target: Dual specificity mitogen-activated protein kinase kinase 2 (Homo sapiens, UniProt P36507)
[7] = target: Serine/threonine-protein kinase MRCK beta (Homo sapiens, UniProt Q9Y5S2)
[8] = target: Bone morphogenetic protein receptor type-1B (Homo sapiens, UniProt O00238)
Pyridoxal kinase = target: T2, Pyridoxal kinase (Homo sapiens, UniProt O00764)
T2 sequence (O00764 whole entry): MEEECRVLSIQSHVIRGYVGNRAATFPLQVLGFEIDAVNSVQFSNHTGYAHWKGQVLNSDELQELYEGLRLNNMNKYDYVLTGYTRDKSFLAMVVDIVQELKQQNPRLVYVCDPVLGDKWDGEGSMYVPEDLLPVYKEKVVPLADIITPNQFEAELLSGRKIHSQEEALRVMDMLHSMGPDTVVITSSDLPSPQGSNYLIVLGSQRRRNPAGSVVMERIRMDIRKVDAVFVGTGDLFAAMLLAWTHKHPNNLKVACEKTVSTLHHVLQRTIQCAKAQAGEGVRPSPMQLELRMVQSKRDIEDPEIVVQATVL

[9] = target: T3, Mitogen-activated protein kinase kinase kinase 3 (Homo sapiens, UniProt Q99759)
T3 sequence (Q99759 whole entry): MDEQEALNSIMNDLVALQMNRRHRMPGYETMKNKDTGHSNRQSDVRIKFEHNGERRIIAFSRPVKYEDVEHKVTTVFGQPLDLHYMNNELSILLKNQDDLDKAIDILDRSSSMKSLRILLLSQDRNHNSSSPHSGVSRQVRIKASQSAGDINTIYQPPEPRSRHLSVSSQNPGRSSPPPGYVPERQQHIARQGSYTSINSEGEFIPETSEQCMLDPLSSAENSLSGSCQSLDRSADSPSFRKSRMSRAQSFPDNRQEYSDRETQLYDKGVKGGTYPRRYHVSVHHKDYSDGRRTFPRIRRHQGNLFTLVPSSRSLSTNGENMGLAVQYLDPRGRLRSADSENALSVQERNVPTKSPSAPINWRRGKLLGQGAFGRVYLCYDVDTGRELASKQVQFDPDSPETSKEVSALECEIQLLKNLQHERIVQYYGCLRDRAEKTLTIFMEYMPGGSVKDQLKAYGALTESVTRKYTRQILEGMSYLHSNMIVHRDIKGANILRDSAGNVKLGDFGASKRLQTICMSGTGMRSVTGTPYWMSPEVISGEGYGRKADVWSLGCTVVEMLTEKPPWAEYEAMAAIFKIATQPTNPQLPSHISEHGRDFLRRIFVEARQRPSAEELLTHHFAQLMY

[10] = target: Mitogen-activated protein kinase kinase kinase 1 (Homo sapiens, UniProt Q13233)
[11] = target: Structural maintenance of chromosomes protein 2 (Homo sapiens, UniProt O95347)
[12] = target: T4, Dual specificity mitogen-activated protein kinase kinase 3 (Homo sapiens, UniProt P46734)
T4 sequence (P46734 whole entry): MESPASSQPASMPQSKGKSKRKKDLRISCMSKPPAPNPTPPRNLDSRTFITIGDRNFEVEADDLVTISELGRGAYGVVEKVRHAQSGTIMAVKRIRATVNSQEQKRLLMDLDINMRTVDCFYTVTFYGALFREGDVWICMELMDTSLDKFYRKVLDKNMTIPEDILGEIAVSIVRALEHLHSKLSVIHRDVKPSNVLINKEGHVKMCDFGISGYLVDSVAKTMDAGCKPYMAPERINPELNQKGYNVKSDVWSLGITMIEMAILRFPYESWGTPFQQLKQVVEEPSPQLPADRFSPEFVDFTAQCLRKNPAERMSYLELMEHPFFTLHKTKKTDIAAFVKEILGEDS
Note: in the data inactive means no Kd found up to 30 µM.

Chain of Mitogen-activated protein kinase kinase kinase 1 (Q13233 whole entry): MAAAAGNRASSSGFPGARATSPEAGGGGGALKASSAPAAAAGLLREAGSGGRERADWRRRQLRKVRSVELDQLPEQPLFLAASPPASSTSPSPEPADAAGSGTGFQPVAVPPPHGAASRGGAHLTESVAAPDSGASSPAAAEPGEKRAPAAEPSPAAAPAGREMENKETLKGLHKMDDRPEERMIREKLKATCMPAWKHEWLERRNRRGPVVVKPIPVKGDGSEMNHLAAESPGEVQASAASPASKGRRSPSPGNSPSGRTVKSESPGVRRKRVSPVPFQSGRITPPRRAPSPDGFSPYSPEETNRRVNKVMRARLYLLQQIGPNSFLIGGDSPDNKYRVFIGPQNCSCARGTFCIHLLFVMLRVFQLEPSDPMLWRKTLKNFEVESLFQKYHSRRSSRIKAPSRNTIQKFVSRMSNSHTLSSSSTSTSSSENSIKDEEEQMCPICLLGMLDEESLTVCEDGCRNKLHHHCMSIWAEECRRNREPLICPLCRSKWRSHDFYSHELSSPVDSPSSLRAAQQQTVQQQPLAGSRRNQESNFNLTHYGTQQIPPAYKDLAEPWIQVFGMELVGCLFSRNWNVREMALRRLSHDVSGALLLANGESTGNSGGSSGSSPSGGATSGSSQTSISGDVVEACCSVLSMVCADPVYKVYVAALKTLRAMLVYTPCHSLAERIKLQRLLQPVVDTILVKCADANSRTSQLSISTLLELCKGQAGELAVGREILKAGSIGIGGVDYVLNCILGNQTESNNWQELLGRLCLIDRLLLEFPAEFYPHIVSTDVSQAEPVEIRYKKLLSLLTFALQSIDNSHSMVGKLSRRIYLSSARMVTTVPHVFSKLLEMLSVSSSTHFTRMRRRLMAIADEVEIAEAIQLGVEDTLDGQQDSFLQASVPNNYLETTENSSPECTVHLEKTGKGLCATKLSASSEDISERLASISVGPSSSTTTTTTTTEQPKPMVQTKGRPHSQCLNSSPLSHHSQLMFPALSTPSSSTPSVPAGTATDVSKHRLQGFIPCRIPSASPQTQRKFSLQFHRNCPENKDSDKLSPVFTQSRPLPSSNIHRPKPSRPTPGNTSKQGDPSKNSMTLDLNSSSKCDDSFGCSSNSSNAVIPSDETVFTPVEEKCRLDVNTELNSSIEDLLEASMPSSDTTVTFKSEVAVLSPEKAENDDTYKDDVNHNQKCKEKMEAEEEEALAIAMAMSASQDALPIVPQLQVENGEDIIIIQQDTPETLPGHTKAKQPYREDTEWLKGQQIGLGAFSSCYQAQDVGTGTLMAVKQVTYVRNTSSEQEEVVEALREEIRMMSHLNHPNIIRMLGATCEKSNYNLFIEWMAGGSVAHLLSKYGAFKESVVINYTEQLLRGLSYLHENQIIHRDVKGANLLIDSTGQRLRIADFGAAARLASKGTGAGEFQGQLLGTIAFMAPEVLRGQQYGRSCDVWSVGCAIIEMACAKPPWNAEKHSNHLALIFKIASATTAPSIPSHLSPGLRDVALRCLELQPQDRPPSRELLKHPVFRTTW
Chain of Serine/threonine-protein kinase 10 (O94804 whole entry): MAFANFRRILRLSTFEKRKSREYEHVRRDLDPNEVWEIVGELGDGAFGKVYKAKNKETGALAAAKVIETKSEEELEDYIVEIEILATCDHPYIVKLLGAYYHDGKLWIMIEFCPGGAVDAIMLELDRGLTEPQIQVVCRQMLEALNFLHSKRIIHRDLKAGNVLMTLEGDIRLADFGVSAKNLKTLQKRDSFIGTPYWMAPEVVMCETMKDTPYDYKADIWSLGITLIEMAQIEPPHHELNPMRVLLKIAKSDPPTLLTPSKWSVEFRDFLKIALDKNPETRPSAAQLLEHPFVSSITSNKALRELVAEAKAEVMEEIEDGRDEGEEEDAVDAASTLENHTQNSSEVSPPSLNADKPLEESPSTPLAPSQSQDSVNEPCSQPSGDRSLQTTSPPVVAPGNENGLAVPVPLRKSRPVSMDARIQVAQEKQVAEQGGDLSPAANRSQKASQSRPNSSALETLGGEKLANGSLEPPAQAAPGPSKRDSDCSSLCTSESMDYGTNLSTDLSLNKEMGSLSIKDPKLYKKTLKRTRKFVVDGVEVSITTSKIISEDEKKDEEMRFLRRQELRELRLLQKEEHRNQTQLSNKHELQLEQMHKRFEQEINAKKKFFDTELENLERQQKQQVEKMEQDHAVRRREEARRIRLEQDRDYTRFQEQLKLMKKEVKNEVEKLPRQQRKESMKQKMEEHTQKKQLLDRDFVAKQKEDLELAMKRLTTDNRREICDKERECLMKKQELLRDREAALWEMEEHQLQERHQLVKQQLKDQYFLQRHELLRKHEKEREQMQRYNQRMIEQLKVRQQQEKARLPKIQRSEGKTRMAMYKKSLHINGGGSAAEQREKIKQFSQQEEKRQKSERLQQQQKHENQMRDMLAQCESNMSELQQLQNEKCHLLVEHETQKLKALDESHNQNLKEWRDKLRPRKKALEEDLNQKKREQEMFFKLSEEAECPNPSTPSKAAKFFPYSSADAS
Chain of Serine/threonine-protein kinase MRCK beta (Q9Y5S2 whole entry): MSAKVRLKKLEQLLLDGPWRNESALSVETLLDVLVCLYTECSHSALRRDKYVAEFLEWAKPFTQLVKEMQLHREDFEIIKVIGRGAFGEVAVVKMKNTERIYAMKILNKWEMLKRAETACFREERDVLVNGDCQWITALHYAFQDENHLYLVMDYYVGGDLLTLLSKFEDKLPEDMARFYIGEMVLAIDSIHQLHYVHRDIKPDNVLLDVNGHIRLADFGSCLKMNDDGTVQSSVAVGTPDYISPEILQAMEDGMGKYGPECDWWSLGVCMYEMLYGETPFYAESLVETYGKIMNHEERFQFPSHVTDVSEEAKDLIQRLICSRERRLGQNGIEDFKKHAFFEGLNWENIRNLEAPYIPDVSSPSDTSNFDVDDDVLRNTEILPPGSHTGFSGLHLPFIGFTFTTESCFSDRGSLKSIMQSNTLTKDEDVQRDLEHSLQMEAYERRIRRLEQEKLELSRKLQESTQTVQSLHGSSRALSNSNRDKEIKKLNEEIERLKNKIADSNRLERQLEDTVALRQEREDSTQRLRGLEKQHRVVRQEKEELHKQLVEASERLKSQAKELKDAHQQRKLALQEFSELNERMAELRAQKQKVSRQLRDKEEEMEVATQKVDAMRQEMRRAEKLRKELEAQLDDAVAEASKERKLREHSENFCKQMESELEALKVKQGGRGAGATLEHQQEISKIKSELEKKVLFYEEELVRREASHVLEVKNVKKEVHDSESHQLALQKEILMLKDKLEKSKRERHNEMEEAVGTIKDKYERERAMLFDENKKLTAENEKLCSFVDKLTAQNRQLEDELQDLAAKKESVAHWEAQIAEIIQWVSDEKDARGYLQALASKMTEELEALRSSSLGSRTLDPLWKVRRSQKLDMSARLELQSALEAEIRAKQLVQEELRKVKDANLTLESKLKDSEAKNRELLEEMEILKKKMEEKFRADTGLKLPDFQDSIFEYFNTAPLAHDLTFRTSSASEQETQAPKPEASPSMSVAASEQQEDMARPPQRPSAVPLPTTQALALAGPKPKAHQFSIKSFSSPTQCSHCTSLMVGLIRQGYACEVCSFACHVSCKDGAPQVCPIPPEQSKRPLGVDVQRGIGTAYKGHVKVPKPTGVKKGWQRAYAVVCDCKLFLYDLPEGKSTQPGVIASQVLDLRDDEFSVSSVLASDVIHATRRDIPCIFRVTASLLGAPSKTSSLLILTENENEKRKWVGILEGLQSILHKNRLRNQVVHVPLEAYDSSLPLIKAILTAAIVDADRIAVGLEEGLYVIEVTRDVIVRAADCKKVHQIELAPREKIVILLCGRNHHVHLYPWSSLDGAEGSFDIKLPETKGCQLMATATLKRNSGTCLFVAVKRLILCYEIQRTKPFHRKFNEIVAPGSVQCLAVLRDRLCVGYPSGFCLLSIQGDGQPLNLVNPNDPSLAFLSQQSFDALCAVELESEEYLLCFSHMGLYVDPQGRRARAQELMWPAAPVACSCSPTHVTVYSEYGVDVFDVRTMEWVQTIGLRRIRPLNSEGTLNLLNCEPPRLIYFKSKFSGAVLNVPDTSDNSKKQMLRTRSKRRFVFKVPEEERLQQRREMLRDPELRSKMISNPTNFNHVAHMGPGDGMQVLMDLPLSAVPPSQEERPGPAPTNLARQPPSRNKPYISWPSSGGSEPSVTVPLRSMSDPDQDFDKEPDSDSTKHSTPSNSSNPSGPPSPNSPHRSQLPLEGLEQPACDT
Chain of Bone morphogenetic protein receptor type-1B (O00238 whole entry): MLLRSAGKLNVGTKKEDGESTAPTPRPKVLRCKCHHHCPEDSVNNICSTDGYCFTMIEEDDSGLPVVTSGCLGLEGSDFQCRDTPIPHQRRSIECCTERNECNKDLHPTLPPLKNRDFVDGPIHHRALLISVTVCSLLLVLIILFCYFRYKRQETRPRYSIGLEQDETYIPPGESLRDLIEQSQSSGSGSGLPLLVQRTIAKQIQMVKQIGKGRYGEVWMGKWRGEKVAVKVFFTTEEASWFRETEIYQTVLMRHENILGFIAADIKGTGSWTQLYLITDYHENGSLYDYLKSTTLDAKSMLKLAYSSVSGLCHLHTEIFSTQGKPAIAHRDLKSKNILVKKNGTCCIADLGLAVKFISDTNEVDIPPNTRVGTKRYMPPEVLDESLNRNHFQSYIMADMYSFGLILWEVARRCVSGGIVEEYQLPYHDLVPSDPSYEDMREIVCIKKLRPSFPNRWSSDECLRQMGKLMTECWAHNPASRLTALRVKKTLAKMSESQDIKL
Chain of Dual specificity mitogen-activated protein kinase kinase 2 (P36507 whole entry): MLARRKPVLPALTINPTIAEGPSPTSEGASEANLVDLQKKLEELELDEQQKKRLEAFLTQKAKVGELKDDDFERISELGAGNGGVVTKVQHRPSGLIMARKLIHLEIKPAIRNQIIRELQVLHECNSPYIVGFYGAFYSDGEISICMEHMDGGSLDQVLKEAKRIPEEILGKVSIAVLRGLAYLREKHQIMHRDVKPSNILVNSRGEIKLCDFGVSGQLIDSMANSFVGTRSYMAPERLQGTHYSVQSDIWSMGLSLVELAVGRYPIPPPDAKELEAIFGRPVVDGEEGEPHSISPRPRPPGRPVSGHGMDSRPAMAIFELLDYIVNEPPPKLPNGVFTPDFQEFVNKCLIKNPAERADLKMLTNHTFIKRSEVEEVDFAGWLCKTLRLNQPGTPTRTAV

Row | Kd [1] | Kd [2] | Kd [3] | Kd [4] | Kd [5] | Kd [6] | Kd [7] | Kd [8] | Kd (Pyridoxal kinase) | Kd [9] | Kd [10] | Kd [11] | Kd [12] | Structure (SMILES)
1 | > 30 µM (inactive) | > 30 µM (inactive) | > 30 µM (inactive) | > 30 µM (inactive) | > 30 µM (inactive) | > 30 µM (inactive) | > 30 µM (inactive) | > 30 µM (inactive) | > 30 µM (inactive) | > 30 µM (inactive) | > 30 µM (inactive) | > 30 µM (inactive) | > 30 µM (inactive) | O[C@H]1CC[C@H](Nc2ncc3nc(Nc4c(F)cc(F)cc4F)n([C@H]4CCOC4)c3n2)CC1 [TANZISERTIB]
2 | > 30 µM (inactive) | > 30 µM (inactive) | > 30 µM (inactive) | > 30 µM (inactive) | > 30 µM (inactive) | > 30 µM (inactive) | > 30 µM (inactive) | > 30 µM (inactive) | > 30 µM (inactive) | > 30 µM (inactive) | > 30 µM (inactive) | > 30 µM (inactive) | > 30 µM (inactive) | Cc1cc(-c2cc(OC(=O)c3ccccc3)ccc2Cl)cc2nnc(Nc3ccc(OCCN4CCCC4)cc3)nc12 [TG100-801]
3 | > 30 µM (inactive) | 1.32 µM (active) | > 30 µM (inactive) | > 30 µM (inactive) | 2.47 µM (active) | > 30 µM (inactive) | > 30 µM (inactive) | > 30 µM (inactive) | > 30 µM (inactive) | > 30 µM (inactive) | > 30 µM (inactive) | > 30 µM (inactive) | > 30 µM (inactive) | CCN1CCN(Cc2ccc(Nc3ncc(F)c(-c4cc(F)c5nc(C)n(C(C)C)c5c4)n3)nc2)CC1 [ABEMACICLIB]
4 | > 30 µM (inactive) | > 30 µM (inactive) | > 30 µM (inactive) | > 30 µM (inactive) | > 30 µM (inactive) | > 30 µM (inactive) | > 30 µM (inactive) | > 30 µM (inactive) | > 30 µM (inactive) | > 30 µM (inactive) | > 30 µM (inactive) | > 30 µM (inactive) | > 30 µM (inactive) | FC(F)(F)c1ccc(CNc2ccc(Cc3c[nH]c4ncc(Cl)cc34)cn2)cn1 [PEXIDARTINIB]
5 | > 30 µM (inactive) | > 30 µM (inactive) | > 30 µM (inactive) | > 30 µM (inactive) | > 30 µM (inactive) | > 30 µM (inactive) | > 30 µM (inactive) | > 30 µM (inactive) | > 30 µM (inactive) | > 30 µM (inactive) | > 30 µM (inactive) | > 30 µM (inactive) | > 30 µM (inactive) | O=c1[nH]c([C@@H]2CCCN2)nc2c1oc1ccc(Cl)cc12
6 | > 30 µM (inactive) | > 30 µM (inactive) | > 30 µM (inactive) | > 30 µM (inactive) | > 30 µM (inactive) | > 30 µM (inactive) | > 30 µM (inactive) | > 30 µM (inactive) | > 30 µM (inactive) | > 30 µM (inactive) | > 30 µM (inactive) | > 30 µM (inactive) | > 30 µM (inactive) | Cc1cc(C(=O)Nc2cc(Oc3ccc4nc(NC(=O)C5CC5)cn4n3)ccc2C)n(C)n1 [TAK-593]
7 | > 30 µM (inactive) | > 30 µM (inactive) | > 30 µM (inactive) | > 30 µM (inactive) | > 30 µM (inactive) | 0.02 µM (active) | > 30 µM (inactive) | > 30 µM (inactive) | > 30 µM (inactive) | > 30 µM (inactive) | > 30 µM (inactive) | > 30 µM (inactive) | > 30 µM (inactive) | Cn1c(=O)c(F)c(Nc2ccc(I)cc2F)c2c(=O)n(C[C@@H](O)CO)cnc21 [TAK-733]
8 | > 30 µM (inactive) | > 30 µM (inactive) | > 30 µM (inactive) | > 30 µM (inactive) | > 30 µM (inactive) | > 30 µM (inactive) | > 30 µM (inactive) | > 30 µM (inactive) | > 30 µM (inactive) | > 30 µM (inactive) | > 30 µM (inactive) | > 30 µM (inactive) | > 30 µM (inactive) | C=CC(=O)Nc1cccc(Nc2nc(Nc3ccc(N4CCN(C(C)=O)CC4)cc3OC)ncc2C(F)(F)F)c1 [ROCILETINIB]

Row | Structure (SMILES) | Kd [1] | Kd [2] | Kd [3] | Kd [4] | Kd [5] | Kd [6] | Kd [7] | Kd [8] | Kd (Pyridoxal kinase) | Kd [9] | Kd [10] | Kd [11] | Kd [12]
9 | CC(C)CC(=O)Nc1[nH]nc2c1CN(C(=O)C1CCN(C)CC1)C2(C)C [PHA-793887] | > 30 µM (inactive) | > 30 µM (inactive) | > 30 µM (inactive) | > 30 µM (inactive) | > 30 µM (inactive) | > 30 µM (inactive) | > 30 µM (inactive) | > 30 µM (inactive) | > 30 µM (inactive) | > 30 µM (inactive) | > 30 µM (inactive) | > 30 µM (inactive) | > 30 µM (inactive)
10 | CC1(COc2ccc3c(c2)ncn3-c2ccc3cccc(N4CCC(N)CC4)c3n2)COC1 [CRENOLANIB] | 1.25 µM (active) | 0.282 µM (active) | > 30 µM (inactive) | 2.77 µM (active) | 3.43 µM (active) | > 30 µM (inactive) | > 30 µM (inactive) | > 30 µM (inactive) | > 30 µM (inactive) | > 30 µM (inactive) | > 30 µM (inactive) | > 30 µM (inactive) | > 30 µM (inactive)
11 | CNC(=O)c1ccc(Nc2ncc(C(F)(F)F)c(NCc3nccnc3N(C)S(C)(=O)=O)n2)cc1 [DEFACTINIB] | > 30 µM (inactive) | > 30 µM (inactive) | > 30 µM (inactive) | 9.05 µM (active) | > 30 µM (inactive) | > 30 µM (inactive) | > 30 µM (inactive) | > 30 µM (inactive) | > 30 µM (inactive) | > 30 µM (inactive) | > 30 µM (inactive) | > 30 µM (inactive) | > 30 µM (inactive)
